From the NIST ThermoML archive (doi:10.1021/je800110r)
± gives the expanded uncertainty stated by the source.

Conditions: 313.14 K, Liquid, Vibrating tube method

Question: Which results are given for `CCCCCCCCCC` [decane]?
Answer: mass density (9156 kPa): 722.3 ± 2 kg/m3; mass density (9171 kPa): 722.4 ± 2 kg/m3; mass density (9194 kPa): 722.3 ± 2 kg/m3; mass density (9210 kPa): 722.4 ± 2 kg/m3; mass density (9227 kPa): 722.3 ± 2 kg/m3; mass density (9245 kPa): 722.2 ± 2 kg/m3; mass density (9261 kPa): 722.3 ± 2 kg/m3; mass density (9284 kPa): 722.4 ± 2 kg/m3; mass density (9300 kPa): 722.4 ± 2 kg/m3; mass density (9323 kPa): 722.5 ± 2 kg/m3; mass density (9338 kPa): 722.6 ± 2 kg/m3; mass density (9358 kPa): 722.5 ± 2 kg/m3; mass density (9374 kPa): 722.6 ± 2 kg/m3; mass density (9392 kPa): 722.5 ± 2 kg/m3; mass density (9410 kPa): 722.6 ± 2 kg/m3; mass density (9431 kPa): 722.4 ± 2 kg/m3; mass density (9447 kPa): 722.6 ± 2 kg/m3; mass density (9463 kPa): 722.7 ± 2 kg/m3; mass density (9479 kPa): 722.4 ± 2 kg/m3; mass density (9503 kPa): 722.6 ± 2 kg/m3; mass density (9522 kPa): 722.6 ± 2 kg/m3; mass density (9538 kPa): 722.5 ± 2 kg/m3; mass density (9554 kPa): 722.6 ± 2 kg/m3; mass density (9574 kPa): 722.7 ± 2 kg/m3; mass density (9587 kPa): 722.7 ± 2 kg/m3; mass density (9607 kPa): 722.6 ± 2 kg/m3; mass density (9627 kPa): 722.6 ± 2 kg/m3; mass density (9646 kPa): 722.6 ± 2 kg/m3; mass density (9674 kPa): 722.5 ± 2 kg/m3; mass density (9694 kPa): 722.8 ± 2 kg/m3; mass density (9717 kPa): 722.7 ± 2 kg/m3; mass density (9733 kPa): 722.8 ± 2 kg/m3; mass density (9747 kPa): 722.7 ± 2 kg/m3; mass density (9770 kPa): 722.9 ± 2 kg/m3; mass density (9785 kPa): 722.8 ± 2 kg/m3; mass density (9807 kPa): 722.8 ± 2 kg/m3; mass density (9828 kPa): 722.9 ± 2 kg/m3; mass density (9851 kPa): 722.9 ± 2 kg/m3; mass density (9869 kPa): 722.8 ± 2 kg/m3; mass density (9892 kPa): 722.9 ± 2 kg/m3; mass density (9913 kPa): 722.9 ± 2 kg/m3; mass density (9930 kPa): 723 ± 2 kg/m3; mass density (9945 kPa): 722.9 ± 2 kg/m3; mass density (9970 kPa): 722.9 ± 2 kg/m3; mass density (9985 kPa): 722.9 ± 2 kg/m3; mass density (10007 kPa): 722.8 ± 2 kg/m3; mass density (10022 kPa): 723 ± 2 kg/m3; mass density (10046 kPa): 723 ± 2 kg/m3; mass density (10062 kPa): 723 ± 2 kg/m3; mass density (10088 kPa): 723 ± 2 kg/m3; mass density (10107 kPa): 723 ± 2 kg/m3; mass density (10128 kPa): 723.1 ± 2 kg/m3; mass density (10147 kPa): 723.1 ± 2 kg/m3; mass density (10166 kPa): 723 ± 2 kg/m3; mass density (10182 kPa): 723.1 ± 2 kg/m3; mass density (10199 kPa): 723.1 ± 2 kg/m3; mass density (10221 kPa): 723.1 ± 2 kg/m3; mass density (10234 kPa): 723.2 ± 2 kg/m3; mass density (10262 kPa): 723.3 ± 2 kg/m3; mass density (10278 kPa): 723.1 ± 2 kg/m3; mass density (10295 kPa): 723.2 ± 2 kg/m3; mass density (10317 kPa): 723.1 ± 2 kg/m3; mass density (10340 kPa): 723.2 ± 2 kg/m3; mass density (10361 kPa): 723.2 ± 2 kg/m3; mass density (10381 kPa): 723.2 ± 2 kg/m3; mass density (10400 kPa): 723.3 ± 2 kg/m3; mass density (10421 kPa): 723.3 ± 2 kg/m3; mass density (10437 kPa): 723.4 ± 2 kg/m3; mass density (10454 kPa): 723.3 ± 2 kg/m3; mass density (10483 kPa): 723.4 ± 2 kg/m3; mass density (10497 kPa): 723.3 ± 2 kg/m3; mass density (10520 kPa): 723.3 ± 2 kg/m3; mass density (10540 kPa): 723.4 ± 2 kg/m3; mass density (10567 kPa): 723.5 ± 2 kg/m3; mass density (10593 kPa): 723.4 ± 2 kg/m3; mass density (10616 kPa): 723.5 ± 2 kg/m3; mass density (10634 kPa): 723.5 ± 2 kg/m3; mass density (10655 kPa): 723.6 ± 2 kg/m3; mass density (10673 kPa): 723.6 ± 2 kg/m3; mass density (10694 kPa): 723.6 ± 2 kg/m3; mass density (10718 kPa): 723.6 ± 2 kg/m3; mass density (10739 kPa): 723.6 ± 2 kg/m3; mass density (10757 kPa): 723.6 ± 2 kg/m3; mass density (10781 kPa): 723.5 ± 2 kg/m3; mass density (10805 kPa): 723.6 ± 2 kg/m3; mass density (10821 kPa): 723.7 ± 2 kg/m3; mass density (10843 kPa): 723.6 ± 2 kg/m3; mass density (10861 kPa): 723.7 ± 2 kg/m3; mass density (10876 kPa): 723.6 ± 2 kg/m3; mass density (10895 kPa): 723.7 ± 2 kg/m3; mass density (10916 kPa): 723.7 ± 2 kg/m3; mass density (10935 kPa): 723.7 ± 2 kg/m3; mass density (10960 kPa): 723.6 ± 2 kg/m3; mass density (10988 kPa): 723.7 ± 2 kg/m3; mass density (11007 kPa): 723.8 ± 2 kg/m3; mass density (11027 kPa): 723.8 ± 2 kg/m3; mass density (11049 kPa): 723.8 ± 2 kg/m3; mass density (11070 kPa): 723.9 ± 2 kg/m3; mass density (11096 kPa): 723.8 ± 2 kg/m3; mass density (11115 kPa): 723.9 ± 2 kg/m3; mass density (11141 kPa): 723.9 ± 2 kg/m3; mass density (11164 kPa): 723.9 ± 2 kg/m3; mass density (11184 kPa): 723.9 ± 2 kg/m3; mass density (11210 kPa): 723.9 ± 2 kg/m3; mass density (11236 kPa): 723.9 ± 2 kg/m3; mass density (11260 kPa): 724 ± 2 kg/m3; mass density (11286 kPa): 724 ± 2 kg/m3; mass density (11306 kPa): 724.1 ± 2 kg/m3; mass density (11326 kPa): 724 ± 2 kg/m3; mass density (11344 kPa): 724.1 ± 2 kg/m3; mass density (11361 kPa): 723.9 ± 2 kg/m3; mass density (11385 kPa): 724.2 ± 2 kg/m3; mass density (11406 kPa): 724 ± 2 kg/m3; mass density (11429 kPa): 724 ± 2 kg/m3; mass density (11459 kPa): 724 ± 2 kg/m3; mass density (11480 kPa): 724 ± 2 kg/m3; mass density (11497 kPa): 724.2 ± 2 kg/m3; mass density (11518 kPa): 724.2 ± 2 kg/m3; mass density (11549 kPa): 724.3 ± 2 kg/m3; mass density (11570 kPa): 724.3 ± 2 kg/m3; mass density (11592 kPa): 724.1 ± 2 kg/m3; mass density (11609 kPa): 724.3 ± 2 kg/m3; mass density (11631 kPa): 724.3 ± 2 kg/m3; mass density (11661 kPa): 724.2 ± 2 kg/m3; mass density (11689 kPa): 724.3 ± 2 kg/m3; mass density (11711 kPa): 724.5 ± 2 kg/m3; mass density (11743 kPa): 724.4 ± 2 kg/m3; mass density (11765 kPa): 724.3 ± 2 kg/m3; mass density (11794 kPa): 724.4 ± 2 kg/m3; mass density (11820 kPa): 724.4 ± 2 kg/m3; mass density (11852 kPa): 724.4 ± 2 kg/m3; mass density (11886 kPa): 724.5 ± 2 kg/m3; mass density (11915 kPa): 724.5 ± 2 kg/m3; mass density (11945 kPa): 724.4 ± 2 kg/m3; mass density (11976 kPa): 724.6 ± 2 kg/m3; mass density (12006 kPa): 724.5 ± 2 kg/m3; mass density (12029 kPa): 724.6 ± 2 kg/m3
